Laboratory results as given in ChEMBL document CHEMBL1909560, “Design and synthesis of a library of chemokine antagonists” (Bioorg Med Chem Lett, 2011).

The molecules below were run against T1, C-C chemokine receptor type 1 (Homo sapiens, UniProt P32246) (assay: Displacement of [125I]-MIP-1alpha 125I]-MCP1 from CCR1 expressed in CHO-K1 cells by scintillation proximity assay).
T1 sequence (P32246 whole entry): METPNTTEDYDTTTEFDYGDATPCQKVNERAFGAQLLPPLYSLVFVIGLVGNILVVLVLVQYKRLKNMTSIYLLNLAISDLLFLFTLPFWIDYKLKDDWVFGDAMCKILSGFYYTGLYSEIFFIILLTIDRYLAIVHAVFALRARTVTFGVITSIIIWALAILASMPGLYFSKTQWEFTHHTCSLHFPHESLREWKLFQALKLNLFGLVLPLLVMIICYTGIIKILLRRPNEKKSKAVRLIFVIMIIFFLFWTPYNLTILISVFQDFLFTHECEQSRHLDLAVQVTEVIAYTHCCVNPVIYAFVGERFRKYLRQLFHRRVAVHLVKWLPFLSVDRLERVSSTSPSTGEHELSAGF
Format: cell-based

| Compound | IC50 [µM] |
| --- | --- |
| Cc1noc(C)c1S(=O)(=O)NCCCN1CCC(O)(c2ccc(Cl)cc2)CC1 | 0.261 |
| O=C(NCCCCN1CCC(Oc2ccc(F)cc2)C1)NCc1ccc(Br)cc1 (configuration not stated) | 0.387 |

Each molecule was assayed against C-C chemokine receptor type 2 (Homo sapiens, UniProt P41597) (assay: Displacement of [125I]-MIP-1alpha 125I]-MCP1 from CCR2 expressed in CHO ducX#98 cells by scintillation proximity assay).
Sequence of C-C chemokine receptor type 2 (P41597 whole entry): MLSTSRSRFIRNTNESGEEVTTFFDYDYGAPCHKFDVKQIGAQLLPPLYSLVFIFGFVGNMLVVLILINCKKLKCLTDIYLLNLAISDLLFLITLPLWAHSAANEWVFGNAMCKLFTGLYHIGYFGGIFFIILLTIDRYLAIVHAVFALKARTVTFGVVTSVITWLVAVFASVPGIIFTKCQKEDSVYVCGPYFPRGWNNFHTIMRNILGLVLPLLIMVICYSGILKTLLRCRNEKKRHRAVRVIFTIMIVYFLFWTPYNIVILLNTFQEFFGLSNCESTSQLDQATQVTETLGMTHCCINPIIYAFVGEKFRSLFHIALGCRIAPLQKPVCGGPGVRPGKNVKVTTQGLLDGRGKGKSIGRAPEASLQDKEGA
Format: cell-based

| Compound | IC50 [µM] |
| --- | --- |
| O=C(NCCCN1CCC(c2ccc(F)cc2)CC1)C1=Cc2cc(Br)ccc2OCC1 | 0.925 |
| O=C(NCCCCN1CCC(Cc2ccc(F)cc2)CC1)Nc1ccc(OC(F)(F)F)cc1 | 1.88 |

These molecules were tested against T2, C-C chemokine receptor type 3 (Homo sapiens, UniProt P51677) (assay: Displacement of [125I]-eotaxin from CCR3 expressed in RBL-2H3 cells by scintillation proximity assay).
T2 sequence (P51677 whole entry): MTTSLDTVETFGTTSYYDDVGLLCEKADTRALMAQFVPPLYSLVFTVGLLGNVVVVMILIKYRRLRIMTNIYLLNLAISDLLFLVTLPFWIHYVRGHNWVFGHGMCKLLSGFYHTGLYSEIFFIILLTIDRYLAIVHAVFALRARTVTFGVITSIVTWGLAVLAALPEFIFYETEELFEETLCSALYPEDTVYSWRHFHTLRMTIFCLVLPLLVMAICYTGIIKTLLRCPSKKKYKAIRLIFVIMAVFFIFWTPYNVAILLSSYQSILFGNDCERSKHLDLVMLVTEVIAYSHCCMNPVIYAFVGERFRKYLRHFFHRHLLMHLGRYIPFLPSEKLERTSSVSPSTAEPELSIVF
Format: cell-based

| Compound | IC50 [µM] |
| --- | --- |
| O=C(NCCCN1CCC(c2ccc(F)cc2)CC1)C1=Cc2cc(Br)ccc2OCC1 | 1 |
| COc1ccc(OC)c(S(=O)(=O)N2CCC(CN3CCN(Cc4ccc(F)cc4)CC3)CC2)c1 | 0.065 |
| COc1ccc(Cl)cc1NC(=O)NCCCCN(C)Cc1ccc(F)cc1 | 0.082 |
| O=C(NCCCCN1CCC(Oc2ccc(F)cc2)C1)Nc1ccc(F)c(F)c1 (configuration not stated) | 0.076 |
| COc1ccc(OC)c(S(=O)(=O)N2CCC(CN3CCC(Cc4ccc(F)cc4)CC3)CC2)c1 | 1.19 |

What follows are molecules tested against C-C chemokine receptor type 5 (Homo sapiens, UniProt P51681) (assay: Displacement of [125I]-MIP-1- alpha from CCR5 expressed in CHO K1 cells by scintillation proximity assay).
Sequence of C-C chemokine receptor type 5 (P51681 whole entry): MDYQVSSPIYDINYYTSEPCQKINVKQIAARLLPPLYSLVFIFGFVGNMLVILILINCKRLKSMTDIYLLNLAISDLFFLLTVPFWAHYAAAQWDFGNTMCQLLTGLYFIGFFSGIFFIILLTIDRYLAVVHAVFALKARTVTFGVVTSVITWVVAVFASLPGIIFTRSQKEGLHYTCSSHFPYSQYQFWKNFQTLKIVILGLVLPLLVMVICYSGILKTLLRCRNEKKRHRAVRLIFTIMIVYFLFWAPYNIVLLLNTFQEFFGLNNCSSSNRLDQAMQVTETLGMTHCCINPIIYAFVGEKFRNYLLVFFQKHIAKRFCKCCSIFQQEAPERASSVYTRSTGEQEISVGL
Format: cell-based

| Compound | IC50 [µM] |
| --- | --- |
| N#Cc1cccc(C(=O)NCCCN2CCC(COCc3ccc(F)cc3)CC2)c1 | 1 |
| COc1ccc(OC)c(S(=O)(=O)N2CCC(CN3CCC(Cc4ccc(F)cc4)CC3)CC2)c1 | 2.85 |
| COc1ccc(C)cc1S(=O)(=O)N1CCC(CN2CCC(c3ccc(F)cc3)CC2)CC1 | 1.3 |
